Data: ChEMBL document CHEMBL1201862, “PubChem BioAssay data set” (2004)
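Where inhibition never reached the appropriate level, the endpoint shown equals the highest concentration tested. Otherwise, values were interpolated linearly from a five-concentration, 48-hour dose response in 96-well plates. Here, GI50 denotes the concentration required for 50% inhibition of growth.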 Active and inactive are the calls of the source. Cut-off read from the data, not from the text of the source: active = GI50 up to about 1.1 µM and inactive = higher.

Key:
Assay in all cases: NCI-60 cell line screen, 48 h
Hs-578T = test system: Hs-578T
CAKI-1 = test system: CAKI-1
T47D = test system: T47D
SK-MEL-2 = test system: SK-MEL-2
NCI-H23 = test system: NCI-H23
ACHN = test system: ACHN
MOLT-4 = test system: MOLT-4
CCRF-CEM = test system: CCRF-CEM
K562 = test system: K562
OVCAR-5 = test system: OVCAR-5
SK-MEL-5 = test system: SK-MEL-5
TK-10 = test system: TK-10
SF-539 = test system: SF-539
HL-60 = test system: HL-60
SR = test system: SR
NCI-H226 = test system: NCI-H226
786-0 = test system: 786-0

Measured: GI50

COC(=O)C1=C(C(=O)OC)SC2(S1)C1=C(CCC1)SC(C(=O)OC)=C2C(=O)OC
inactive: Hs-578T 18.5 µM | CAKI-1 5.87 µM | T47D 9.25 µM | SK-MEL-2 18.8 µM | NCI-H23 18.6 µM | ACHN 12.3 µM | MOLT-4 2.29 µM | CCRF-CEM 2.17 µM | K562 3.09 µM | OVCAR-5 19.4 µM | SK-MEL-5 14.9 µM | TK-10 14.9 µM | SF-539 1.48 µM | HL-60 6.76 µM

COc1ccc2c(c1)CC[C@@H]1[C@@H]2CC[C@]2(C)C(=O)/C(=C/c3ccc(O)c(OC)c3)C[C@@H]12
inactive: SR 32.2 µM | CAKI-1 67.8 µM | T47D 96.6 µM | SK-MEL-2 69.2 µM | NCI-H226 44.2 µM | NCI-H23 77.1 µM | ACHN > 100 µM | MOLT-4 28.2 µM | CCRF-CEM 66.2 µM | K562 50.5 µM | OVCAR-5 76 µM | SK-MEL-5 33.9 µM | TK-10 43.1 µM | HL-60 47.8 µM

CN1CCCOC(c2ccc([N+](=O)[O-])cc2)O1 (centres undefined)
inactive: SR > 100 µM | CAKI-1 > 100 µM | T47D > 100 µM | SK-MEL-2 > 100 µM | NCI-H226 > 100 µM | NCI-H23 > 100 µM | ACHN > 100 µM | 786-0 > 100 µM | MOLT-4 > 100 µM | CCRF-CEM > 100 µM | K562 > 100 µM | OVCAR-5 > 100 µM | SK-MEL-5 > 100 µM | TK-10 > 100 µM | SF-539 > 100 µM

CCOC(=O)c1sc2nc(SC)nc3c2c1NCN3C
inactive: Hs-578T 20.1 µM | CAKI-1 22.5 µM | T47D 6.79 µM | SK-MEL-2 86.1 µM | NCI-H226 31.7 µM | NCI-H23 22 µM | ACHN 18.7 µM | 786-0 15.2 µM | CCRF-CEM > 100 µM | OVCAR-5 36.1 µM | SK-MEL-5 51.5 µM | TK-10 25 µM

CNC(=O)N(CCC#N)CCN(C(=O)NC)c1ccccc1
inactive: SR > 100 µM | CAKI-1 > 100 µM | T47D > 100 µM | SK-MEL-2 > 100 µM | NCI-H226 > 100 µM | NCI-H23 > 100 µM | ACHN > 100 µM | 786-0 > 100 µM | MOLT-4 > 100 µM | CCRF-CEM > 100 µM | K562 > 100 µM | OVCAR-5 > 100 µM | SK-MEL-5 > 100 µM | TK-10 > 100 µM | SF-539 > 100 µM

NC(CCCCCP(=O)(c1ccccc1)C1C=CC=CC1)C(=O)O (centres undefined)
inactive: Hs-578T > 100 µM | SR > 100 µM | CAKI-1 > 100 µM | T47D 57.8 µM | SK-MEL-2 > 100 µM | NCI-H23 > 100 µM | ACHN > 100 µM | MOLT-4 > 100 µM | CCRF-CEM > 100 µM | K562 > 100 µM | OVCAR-5 > 100 µM | SK-MEL-5 > 100 µM | TK-10 > 100 µM | SF-539 > 100 µM | HL-60 > 100 µM

COc1ccc(-c2c(C(C)=O)c(C)n(C3OC(CO)C(O)C(O)C3O)c(=S)c2C#N)cc1 (centres undefined)
inactive: Hs-578T 98.2 µM | SR 48.8 µM | CAKI-1 > 100 µM | T47D 34.6 µM | NCI-H23 68.1 µM | ACHN 80.2 µM | MOLT-4 27.7 µM | CCRF-CEM 38.3 µM | K562 37.8 µM | OVCAR-5 > 100 µM | SK-MEL-5 48.8 µM | TK-10 > 100 µM | SF-539 36.1 µM | HL-60 41 µM

COC(=O)C1CC2CC1C1C2SC(F)(F)C1(F)F (centres undefined)
inactive: Hs-578T > 100 µM | SR > 100 µM | CAKI-1 > 100 µM | T47D > 100 µM | SK-MEL-2 > 100 µM | NCI-H226 > 100 µM | ACHN > 100 µM | 786-0 > 100 µM | MOLT-4 > 100 µM | OVCAR-5 > 100 µM | SK-MEL-5 > 100 µM | TK-10 > 100 µM | SF-539 > 100 µM

CC[C@@H]1CC[C@@H]2[C@H](CC[C@]3(C)[C@@H](OC(C)=O)CC[C@@H]23)[C@H]1COC(C)=O
inactive: Hs-578T 25.1 µM | CAKI-1 29 µM | T47D 32.1 µM | SK-MEL-2 16.4 µM | NCI-H226 23.1 µM | NCI-H23 27.2 µM | ACHN 53.8 µM | 786-0 45.1 µM | MOLT-4 16 µM | CCRF-CEM 20 µM | K562 17.6 µM | OVCAR-5 20.1 µM | SK-MEL-5 18.3 µM | TK-10 > 100 µM | SF-539 24.4 µM | HL-60 20.7 µM

O=C(O)CC(O)(C(=O)O)C(O)C(=O)O (centres undefined)
inactive: Hs-578T 119 µM | CAKI-1 > 1000 µM | T47D > 1000 µM | SK-MEL-2 > 1000 µM | NCI-H226 > 1000 µM | NCI-H23 > 1000 µM | ACHN > 1000 µM | 786-0 > 1000 µM | MOLT-4 > 1000 µM | CCRF-CEM > 1000 µM | K562 > 1000 µM | OVCAR-5 > 1000 µM | SK-MEL-5 247 µM | TK-10 > 1000 µM | SF-539 > 1000 µM | HL-60 > 1000 µM

CCCCCCCCC/C=C1\CC(CO)(COC(=O)c2ccccc2)OC1=O (centres undefined)
inactive: Hs-578T 17.3 µM | SR 42.4 µM | CAKI-1 19.4 µM | T47D 29.1 µM | SK-MEL-2 43.5 µM | NCI-H226 23.2 µM | NCI-H23 19.4 µM | ACHN 29.8 µM | 786-0 17.8 µM | MOLT-4 38.2 µM | CCRF-CEM 16.9 µM | K562 27.9 µM | OVCAR-5 15.9 µM | SK-MEL-5 12.5 µM | TK-10 18.6 µM

CC(CC(C)[C@H]1CCC2[C@H]3C(CC[C@@]21C)[C@@]1(C)CCC(O)C[C@H]1C[C@@H]3O)C(=O)O (some centres undefined)
inactive: SR > 100 µM | CAKI-1 > 100 µM | T47D > 100 µM | SK-MEL-2 > 100 µM | NCI-H226 > 100 µM | NCI-H23 > 100 µM | ACHN > 100 µM | 786-0 > 100 µM | MOLT-4 > 100 µM | CCRF-CEM > 100 µM | K562 26.2 µM | OVCAR-5 > 100 µM | TK-10 > 100 µM | SF-539 > 100 µM | HL-60 > 100 µM

c1ccc2c(c1)[nH]c1c2cc[n+]2cc3c(cc12)CCCC3
inactive: Hs-578T 3.87 µM | SR 1.75 µM | CAKI-1 17.2 µM | T47D 1.66 µM | SK-MEL-2 1.63 µM | NCI-H226 2.03 µM | NCI-H23 2.24 µM | ACHN 3.75 µM | 786-0 2.28 µM | MOLT-4 1.18 µM | K562 1.6 µM | OVCAR-5 2.45 µM | SK-MEL-5 1.54 µM | TK-10 6.68 µM | SF-539 1.64 µM
